Experimental data taken from patent US7253177B2, “Synthesis and antimalarial activity of pyrrolo[3,2-f]quinazoline-1,3-diamine derivatives” (United States of America as Represented by the Secretary of …, priority 2004, dated 2007).

What was measured:
[1] = Toxicity in P. cynomolgi-infected Rhesus monkeys; settings: 12 mg/kg/day for 7 consecutive days
P. berghei ANKA = test: In vivo antimalarial study against P. berghei in rats; parameters: species or system Plasmodium berghei
[2] = Host toxicity in animal models (general statements); type: in vivo; settings: any dose, all species of animal models studied
[3] = tested on: Plasmodium yoelii (17x) sporozoites; test: Sporozoite induced test in mice; type: in vivo; settings: P. yoelii; for Number of Mice Cured: oral
Procedure: B. Antimalarial Activities: (a). In Vitro Antimalarial Studies. The in vitro assays were conducted by using a modification of the semiautomated microdilution technique of Desjardins et al and Chulay et al.. Four P. falciparum malaria parasite clones, from CDC Indochina III (W-2), CDC Sierra Leone I (D-6), Southeast Asia Isolates (TM91C235) and RCS (Isolates from Brazil) were utilized in susceptibility testing. They were derived by direct visualization and micromanipulation from patient isolates. The W-2 clone is susceptible to mefloquine but resistant to chloroquine, sulfadoxine, pyrimethamine, and quinine, whereas the D-6 clone is naturally resistant to mefloquine but susceptible to chloroquine, sulfadoxine, pyrimethamine and quinine. Test compounds were initially dissolved in DMSO and diluted 400 fold in RPMI 1640 culture medium supplemented with 25 mM Hepes, 32 mM NaHCO3 and 10% Albumax I (Gibco BRL, Grand Island, N.Y.). These solutions were subsequently serially diluted two-fold with a Biomek 1000 (Beckman, Fullerton, Calif.) over 11 different concentrations. The parasites were exposed to serial dilutions of each compound for 48 hrs and incubated at 37° C. with 5% O2, 5% CO2 and 90% N2 prior to the addition of [^3H]hypoxanthine. After a further incubation of 18 hrs, parasite DNA was harvested from each microtiter well using Packard Filtermate 196 Harvester (Meriden, Conn.) onto glass filters. Uptake of [^3H]hypoxanthine was measured with a Packard Topcount Scintillation. Concentration-response data were analyzed by a non-linear regression logistic dose response model and the IC50 values (50% inhibitory concentrations) for each compound were calculated. (Table 3). (b). In Vivo Antimalarial Studies against P. berghei in mice: The in vivo efficacy of the artelinic acid analogs were determined in a modified Thompson test. This test measures the survivability of mice and parasitemia clearance following administration of drug on days 3-5 post infection. In brief, 5×10^6 P. berghei-infected erythrocytes (KBG-173 strain) were inoculated intraperitoneally to female mice that weighed 24-30 g. By day three post-infection, parasitemia ranged from 1.0-3.7%. Each drug, dissolved in 5% sodium bicarbonate, was administered PO twice daily from day 3-5 post-infection. Total doses for each drug ranged from 1.5-384 mg/kg with 8 mice included in each dosage group. The percent suppression of parasitemia in the treated mice compared to the untreated controls was determined for each test compound; the SD-50 (fifty percent suppression dose) and SD-90 were determined from a non-linear regression logistic dose response fit at day 6 parasitemia data. Survival of mice to day 60 post-infection was considered a cure (C). Compounds were considered active (A) when the survival time of the treated mice was greater than twice the control mice, i.e., 12-14 day (Table 4-5). (c). Sporozoite Induced Test Each compound is ground with a mortar & pestle and suspended in 0.5% hydroxyethylcellulose—0.1% Tween 80 for compounds to be administered PO and those given SC are suspended in peanut oil. Each compound is prepared at 3 different dose levels as requested by WRAIR. Compounds are administered either PO or SC to mice once 4 hr before inoculation of sporozoites. Four-week-old male CD-1 mice, purchased from Charles River and weighing 16-17 g, are placed 5 per cage and allowed to acclimate for 4 days before being treated and then inoculated with sporozoites. They are fed food and water ad-lib and maintained at 76° F. with 12 hr light and 12 hr darkness. The cages and water bottles are changed biweekly. The mice are weighed on Days 0, 3 and 6 then biweekly when blood films are taken. Plasmodium yoelii (17×) is used to infect mice that will be used to infect the mosquitoes. […] Whole body weights are taken on Day 0 and Day 6 then twice a week for 31 days. A blood film is taken on Day 5 and then twice a week for 31 days. Mice loosing >20% of their body weight will be sacrificed. […]

SMILES	signs of toxicity [1]	cure against P. berghei in rats (P. berghei ANKA; 5 mg/kg intragastric daily x3 (days 6, 7, 8 post-inoculation)) [%]	cure against P. berghei in rats (P. berghei ANKA; 10 mg/kg intragastric daily x3) [%]	cure against P. berghei in rats (P. berghei ANKA; 20 mg/kg intragastric daily x3) [%]	host toxicity in efficacy studies [2]	mice cured ([3]; dose groups from 0.625 to 40 mg/kg) [%]	parasitemia formation in sporozoite challenged mouse ([3]; doses from 0.65 to 40 mg/kg given orally for 3 consecutive days)	Number of Mice Cured ([3]; 0.15625 mg/kg)	Number of Mice Cured ([3]; 0.3125 mg/kg)	Number of Mice Cured ([3]; 0.625 mg/kg)	Number of Mice Cured ([3]; 2.5 mg/kg)	Number of Mice Cured ([3]; 10 mg/kg)	Number of Mice Cured ([3]; 40 mg/kg)
CCOC(=O)Nc1nc(NC(=O)OCC)c2c(ccc3c2ccn3Cc2ccccc2C(F)(F)F)n1 [Compound 2b]	neither 2b nor 3e exhibited any sign of toxicity												
CC(=O)N(C(C)=O)c1nc(N(C(C)=O)C(C)=O)c2c(ccc3c2ccn3Cc2ccccc2C(F)(F)F)n1 [Compound 3e, 1,3-Bis(diacetylamino)-7-(2-trifluoromethyl)benzyl-7H-pyrrolo[3,2-f]quinazoline]	neither 2b nor 3e exhibited any sign of toxicity	100	100	100	No host toxicity	100	completely prevented parasitemia formation	4/5	4/5	5/5	5/5	5/5	5/5
